From US20210330611A1, “THERAPY FOR NEUROLOGICAL DISEASES/DISORDERS” (priority 2020, published 2021)
Counter-ions that a name gives are not always drawn.

How the values were obtained:
[1] = tested on: LPS-induced microglia activation; assay: Image-based assay of LPS-induced microglia activation (HTS and dose response); type: cell-based, rat; conditions: primary HTS, 10 μM, LPS-stimulated primary microglia; for inhibition at 10 µM: Rattus norvegicus, Microglia, read-out: LPS % inhibition
primary rat microglia [2] = assay: Cell toxicity (dead cells, size <150 μm2) in LPS assay; conditions: primary HTS, 10 μM, LPS assay, dead cells size <150 μm2
primary rat microglia [3] = assay: Cell toxicity (dead cells, size <150 μm2) in coated fibrin (cFib) assay; conditions: primary HTS, 10 μM, fibrin assay, dead cells size <150 μm2;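 also: share of dead cells sized under 150 µm2 at 10 µM in fibrin-stimulated microglia HTS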
[4] = tested on: fibrin-induced microglia activation; assay: Image-based assay of fibrin-induced microglia activation (HTS and dose response); type: cell-based, rat; conditions: primary HTS, 10 μM, fibrin-stimulated primary microglia; for inhibition at 10 µM: Rattus norvegicus, Microglia, read-out: Fibrin % inhibition
[5] = tested on: fibrin- and LPS-induced microglia activation; assay: cells; type: cell-based, rat; conditions: primary HTS, 10 μM

## COc1cc(CNC(=O)CCCC/C=C/C(C)C)ccc1O [Capsaicin]
[1]
  inhibition at 10 µM: 9%
Primary rat microglia [2]
  LPS % cell toxicity: 0%
Primary rat microglia [3]
  Fibrin % cell toxicity: 1%
[4]
  inhibition at 10 µM: -45%
[5]
  Quadrant (FIG. 5b): Q4

## C[C@H](CS)C(=O)N1CCC[C@H]1C(=O)O [Captopril]
[1]
  inhibition at 10 µM: 12%
Primary rat microglia [2]
  LPS % cell toxicity: 1%
Primary rat microglia [3]
  Fibrin % cell toxicity: 1%
[4]
  inhibition at 10 µM: -11%
[5]
  Quadrant (FIG. 5b): Q4

## C[N+](C)(C)CCOC(N)=O [Carbachol]
[1]
  inhibition at 10 µM: 6%
Primary rat microglia [2]
  LPS % cell toxicity: 0%
Primary rat microglia [3]
  Fibrin % cell toxicity: 1%
[4]
  inhibition at 10 µM: -18%
[5]
  Quadrant (FIG. 5b): Q4

## COC(=O)N/N=C/c1c[n+]([O-])c2ccccc2[n+]1[O-] [Carbadox]
[1]
  inhibition at 10 µM: 11%
Primary rat microglia [2]
  LPS % cell toxicity: 1%
Primary rat microglia [3]
  Fibrin % cell toxicity: 1%
[4]
  inhibition at 10 µM: -2%
[5]
  Quadrant (FIG. 5b): Q4

## NC(=O)N1c2ccccc2C=Cc2ccccc21 [Carbamazepine]
[1]
  inhibition at 10 µM: 4%
Primary rat microglia [2]
  LPS % cell toxicity: 0%
Primary rat microglia [3]
  Fibrin % cell toxicity: 0%
[4]
  inhibition at 10 µM: -25%
[5]
  Quadrant (FIG. 5b): Q4

## CC1(C)S[C@@H]2[C@H](NC(=O)C(C(=O)O)c3ccccc3)C(=O)N2[C@H]1C(=O)O (some centres unmarked) [Carbenicillin]
[1]
  inhibition at 10 µM: 4%
Primary rat microglia [2]
  LPS % cell toxicity: 0%
Primary rat microglia [3]
  Fibrin % cell toxicity: 1%
[4]
  inhibition at 10 µM: -4%
[5]
  Quadrant (FIG. 5b): Q4

## CC1(C)[C@@H](OC(=O)CCC(=O)O)CC[C@]2(C)[C@H]3C(=O)C=C4[C@@H]5C[C@@](C)(C(=O)O)CC[C@]5(C)CC[C@@]4(C)[C@]3(C)CC[C@@H]12 [Carbenoxolone Sodium]
[1]
  inhibition at 10 µM: 6%
Primary rat microglia [2]
  LPS % cell toxicity: 0%
Primary rat microglia [3]
  Fibrin % cell toxicity: 0%
[4]
  inhibition at 10 µM: 16%
[5]
  Quadrant (FIG. 5b): Q4

## CCOC(=O)n1ccn(C)c1=S [Carbimazole]
[1]
  inhibition at 10 µM: 8%
Primary rat microglia [2]
  LPS % cell toxicity: 0%
Primary rat microglia [3]
  Fibrin % cell toxicity: 0%
[4]
  inhibition at 10 µM: -32%
[5]
  Quadrant (FIG. 5b): Q4

## CN(C)CCOC(c1ccc(Cl)cc1)c1ccccn1 (centres unmarked) [Carbinoxamine]
[1]
  inhibition at 10 µM: -3%
Primary rat microglia [2]
  LPS % cell toxicity: 0%
Primary rat microglia [3]
  Fibrin % cell toxicity: 0%
[4]
  inhibition at 10 µM: 6%
[5]
  Quadrant (FIG. 5b): Q4

## NC(=O)N[C@@H](CCC(=O)O)C(=O)O [Carglumic Acid]
[1]
  inhibition at 10 µM: 6%
Primary rat microglia [2]
  LPS % cell toxicity: 0%
Primary rat microglia [3]
  Fibrin % cell toxicity: 1%
[4]
  inhibition at 10 µM: 1%
[5]
  Quadrant (FIG. 5b): Q4

## CCCC(C)(COC(N)=O)COC(=O)NC(C)C (centres unmarked) [Carisoprodol]
[1]
  inhibition at 10 µM: -1%
Primary rat microglia [2]
  LPS % cell toxicity: 0%
Primary rat microglia [3]
  Fibrin % cell toxicity: 0%
[4]
  inhibition at 10 µM: 1%
[5]
  Quadrant (FIG. 5b): Q4

## CCCCCCNC(=O)n1cc(F)c(=O)[nH]c1=O [Carmofur]
[1]
  inhibition at 10 µM: 17%
Primary rat microglia [2]
  LPS % cell toxicity: 0%
Primary rat microglia [3]
  Fibrin % cell toxicity: 0%
[4]
  inhibition at 10 µM: -13%
[5]
  Quadrant (FIG. 5b): Q4

## O=c1[nH]c(=O)c2ccccc2o1 [Carsalam]
[1]
  inhibition at 10 µM: 11%
Primary rat microglia [2]
  LPS % cell toxicity: 1%
Primary rat microglia [3]
  Fibrin % cell toxicity: 0%
[4]
  inhibition at 10 µM: -7%
[5]
  Quadrant (FIG. 5b): Q4

## CC(C)(C)NCC(O)COc1cccc2c1CCC(=O)N2 (centres unmarked) [Carteolol]
[1]
  inhibition at 10 µM: 7%
Primary rat microglia [2]
  LPS % cell toxicity: 0%
Primary rat microglia [3]
  Fibrin % cell toxicity: 0%
[4]
  inhibition at 10 µM: 12%
[5]
  Quadrant (FIG. 5b): Q4

## NS(=O)(=O)c1ccc(C(=O)O)cc1 [Carzenide]
[1]
  inhibition at 10 µM: 14%
Primary rat microglia [2]
  LPS % cell toxicity: 0%
Primary rat microglia [3]
  Fibrin % cell toxicity: 1%
[4]
  inhibition at 10 µM: -24%
[5]
  Quadrant (FIG. 5b): Q4

## N[C@@H](C(=O)N[C@@H]1C(=O)N2C(C(=O)O)=C(Cl)CS[C@H]12)c1ccccc1 [Cefaclor]
[1]
  inhibition at 10 µM: 19%
Primary rat microglia [2]
  LPS % cell toxicity: 0%
Primary rat microglia [3]
  Fibrin % cell toxicity: 1%
[4]
  inhibition at 10 µM: -14%
[5]
  Quadrant (FIG. 5b): Q4

## CC1=C(C(=O)O)N2C(=O)[C@@H](NC(=O)[C@H](N)c3ccc(O)cc3)[C@H]2SC1 [Cefadroxil]
[1]
  inhibition at 10 µM: 3%
Primary rat microglia [2]
  LPS % cell toxicity: 0%
Primary rat microglia [3]
  Fibrin % cell toxicity: 0%
[4]
  inhibition at 10 µM: 1%
[5]
  Quadrant (FIG. 5b): Q4

## NC(=O)c1cc[n+](CC2=C(C(=O)[O-])N3C(=O)[C@@H](NC(=O)Cc4cccs4)[C@H]3SC2)cc1 [Cefalonium]
[1]
  inhibition at 10 µM: 11%
Primary rat microglia [2]
  LPS % cell toxicity: 0%
Primary rat microglia [3]
  Fibrin % cell toxicity: 1%
[4]
  inhibition at 10 µM: 9%
[5]
  Quadrant (FIG. 5b): Q4

## CC(=O)OCC1=C(C(=O)O)N2C(=O)[C@@H](NC(=O)Cc3cccs3)[C@H]2SC1 [Cefalotin]
[1]
  inhibition at 10 µM: 1%
Primary rat microglia [2]
  LPS % cell toxicity: 0%
Primary rat microglia [3]
  Fibrin % cell toxicity: 1%
[4]
  inhibition at 10 µM: 1%
[5]
  Quadrant (FIG. 5b): Q4

## Cn1nnnc1SCC1=C(C(=O)O)N2C(=O)[C@@H](NC(=O)[C@H](OC=O)c3ccccc3)[C@H]2SC1 [Cefamandole Nafate]
[1]
  inhibition at 10 µM: 12%
Primary rat microglia [2]
  LPS % cell toxicity: 0%
Primary rat microglia [3]
  Fibrin % cell toxicity: 0%
[4]
  inhibition at 10 µM: -3%
[5]
  Quadrant (FIG. 5b): Q4

## Cn1nnnc1SCC1=C(C(=O)O)N2C(=O)[C@@H](NC(=O)[C@H](O)c3ccccc3)[C@H]2SC1 [Cefamandole Sodium]
[1]
  inhibition at 10 µM: 16%
Primary rat microglia [2]
  LPS % cell toxicity: 0%
Primary rat microglia [3]
  Fibrin % cell toxicity: 1%
[4]
  inhibition at 10 µM: -12%
[5]
  Quadrant (FIG. 5b): Q4

## CC(=O)OCC1=C(C(=O)O)N2C(=O)[C@@H](NC(=O)CSc3ccncc3)[C@H]2SC1 [Cefapirin]
[1]
  inhibition at 10 µM: 7%
Primary rat microglia [2]
  LPS % cell toxicity: 0%
Primary rat microglia [3]
  Fibrin % cell toxicity: 0%
[4]
  inhibition at 10 µM: -26%
[5]
  Quadrant (FIG. 5b): Q4

## Cc1nnc(SCC2=C(C(=O)O)N3C(=O)[C@@H](NC(=O)Cn4cnnn4)[C@H]3SC2)s1 [Cefazolin]
[1]
  inhibition at 10 µM: 11%
Primary rat microglia [2]
  LPS % cell toxicity: 0%
Primary rat microglia [3]
  Fibrin % cell toxicity: 1%
[4]
  inhibition at 10 µM: 0%
[5]
  Quadrant (FIG. 5b): Q4

## C=CC1=C(C(=O)O)N2C(=O)[C@@H](NC(=O)/C(=N\O)c3csc(N)n3)[C@H]2SC1 [Cefdinir]
[1]
  inhibition at 10 µM: 16%
Primary rat microglia [2]
  LPS % cell toxicity: 0%
Primary rat microglia [3]
  Fibrin % cell toxicity: 1%
[4]
  inhibition at 10 µM: -9%
[5]
  Quadrant (FIG. 5b): Q4

## CO/N=C(\C(=O)N[C@@H]1C(=O)N2C(C(=O)OCOC(=O)C(C)(C)C)=C(/C=C\c3scnc3C)CS[C@H]12)c1csc(N)n1 [Cefditorin Pivoxil]
[1]
  LPS % inhibition: 21%
Primary rat microglia [2]
  LPS % cell toxicity: 1%
Primary rat microglia [3]
  Fibrin % cell toxicity: 1%
[4]
  Fibrin % inhibition: 2%
[5]
  Quadrant (FIG. 5b): Q4

## CO/N=C(\C(=O)N[C@@H]1C(=O)N2C(C(=O)O)=C(C[N+]3(C)CCCC3)CS[C@H]12)c1csc(N)n1 [Cefepime Hydrochloride]
[1]
  inhibition at 10 µM: 16%
Primary rat microglia [2]
  LPS % cell toxicity: 0%
Primary rat microglia [3]
  Fibrin % cell toxicity: 1%
[4]
  inhibition at 10 µM: 7%
[5]
  Quadrant (FIG. 5b): Q4

## CO/N=C(\C(=O)N[C@@H]1C(=O)N2C(C(=O)[O-])=C(C[N+]3(C)CCCC3)CS[C@H]12)c1csc(N)n1 [Cefepime]
[1]
  inhibition at 10 µM: 4%
Primary rat microglia [2]
  LPS % cell toxicity: 0%
Primary rat microglia [3]
  Fibrin % cell toxicity: 1%
[4]
  inhibition at 10 µM: -26%
[5]
  Quadrant (FIG. 5b): Q4

## C=CC1=C(C(=O)O)N2C(=O)[C@@H](NC(=O)/C(=N\OCC(=O)O)c3csc(N)n3)[C@H]2SC1 [Cefixime]
[1]
  inhibition at 10 µM: -8%
Primary rat microglia [2]
  LPS % cell toxicity: 0%
Primary rat microglia [3]
  Fibrin % cell toxicity: 1%
[4]
  inhibition at 10 µM: 0%
[5]
  Quadrant (FIG. 5b): Q4
